Assay [1] has as its system Pancreatic cancer tumor cells. In words: MTT proliferation inhibition, pancreatic cancer cells. The assay is classed as cell-based, human. On the set-up: concentration or dose not given beside the values. Particulars: 48 h. The method, boiled down: (§1)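 Tumour cells plated at 2×10^4 cells/mL, attached overnight, then exposed to dilutions of mPEG-HM-1 for 48 h at 37 °C, 5% CO2. MTT added 4 h, formazan dissolved in DMSO, absorbance 570/630 nm; growth inhibition = 1 − treated/untreated, three independent repeats, mean±SD.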

The next assay deals with Liver cancer tumor cells. The assay can be described thus: MTT proliferation inhibition, liver cancer cells. Set-up: concentration or dose not given beside the values. The assay is classed as cell-based, human. Conditions: 48 h. The method, boiled down: as §1
Assay [2] has as its system Gastric cancer tumor cells. In words: MTT proliferation inhibition, gastric cancer cells. The assay is classed as cell-based, human. On the set-up: concentration or dose not given beside the values. Particulars: 48 h. The method, boiled down:
as §1

Assay [3] relates to Breast cancer tumor cells. In words: MTT proliferation inhibition, breast cancer cells. The assay is classed as cell-based, human. Conditions: 48 h. On the set-up: concentration or dose not given beside the values. The procedure, abridged: as §1
Assay [4] relates to Kidney cancer tumor cells. The assay can be described thus: MTT proliferation inhibition, kidney cancer cells. The assay is classed as cell-based, human. On the set-up: concentration or dose not given beside the values. Conditions: 48 h. The procedure, abridged: as §1
The test system of assay [5] is Ovarian cancer tumor cells. The assay can be described thus: MTT proliferation inhibition, ovarian cancer cells. Conditions: 48 h. The assay is classed as cell-based, human. On the set-up: concentration or dose not given beside the values. The method, boiled down:
as §1

Assay [6] relates to Bladder Cancer tumor cells. The assay can be described thus: MTT proliferation inhibition, bladder cancer cells. Set-up: concentration or dose not given beside the values. The assay is classed as cell-based, human. Conditions: 48 h. The procedure, abridged:
as §1

The next assay has as its system Melanoma tumor cells. In words: MTT proliferation inhibition, melanoma cells. The assay is classed as cell-based, human. On the set-up: concentration or dose not given beside the values. Particulars: 48 h. The procedure, abridged:
as §1

The subject of a further assay is Hemangioma tumor cells. The assay can be described thus: MTT proliferation inhibition, hemangioma cells. On the set-up: concentration or dose not given beside the values. Particulars: 48 h. The assay is classed as cell-based, human. The procedure, abridged:
as §1

Assay [7] deals with Human Umbilical Vein Endothelial Cells (HUVEC). In words: Transwell migration of HUVEC. The assay is classed as cell-based. Conditions: 24 h. The method, boiled down: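 HUVEC (1×10^5/mL in blank medium) seeded with test solutions into Matrigel-coated transwell inserts, lower chamber holding medium with 5% FBS and 1% ECGS, 24 h at 37 °C. Migrated cells crystal-violet stained and counted in four fields; migration inhibition calculated from test versus blank-control counts, three independent repeats.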

Assay [8] relates to adjuvant arthritis (AA) SD rats. The assay can be described thus: Adjuvant arthritis (AA) rat model. In kind it is in vivo. Conditions: 10 mg/kg subcutaneous once every three days, AA SD rats.
The test system of assay [9] is corneal neovascularization in BALB/c mice. In words: Alkali-burn corneal neovascularization in BALB/c mice (CD31 microvessel density). In kind it is in vivo, mouse. Particulars: day 14 after alkali burn, intravitreal once a day for 1 week. The method, boiled down:
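Mice received mPEG-HM-1 or saline by intravitreal injection once daily for 1 week after corneal alkali burn, with slit-lamp observation at 1, 7 and 14 d. At day 14, 8 μm frozen corneal sections were stained with anti-CD31, and microvessels per unit corneal area were counted; mean±SD of 3 independent tests, t test.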

Data on 1 substance can be found in patent US10869931B2, “Polyethylene glycol-modified angiogenesis inhibitor HM-1 and application thereof” (NANJING ANJI BIOLOGICAL TECHNOLOGY CO.,LTD, priority 2016, dated 2020).

Marks after values point to notes of the source that are not given here. Where no end group is shown, it is not given here.

For “mPEG-ALD5k-Arg-Gly-Ala-Asp-Arg-Ala-Gly-Gly-Gly-Gly-Arg-Gly-Asp ({mPEG‑ALD 5 kDa}-RGADRAGGGGRGD) [mPEG-ALD5k-HM-1]”, the “rate of growth inhibition” value in assay [1] stood at 52.19 ± 12.64%; in the assay with Liver cancer tumor cells it was 52.98 ± 11.55%; in assay [2], 58.77 ± 15.49%; in assay [3], 49.22 ± 11.87%; in [4], 55.43 ± 14.04%; in assay [5] it was 65.81 ± 20.42%. The figures for the “rate of growth inhibition” value (in assay [6]; in the assay with Melanoma tumor cells; in the assay on Hemangioma tumor cells) were 35.93 ± 10.29%, 63.61 ± 21.30% and 43.89 ± 14.14%, respectively. Moreover, the “cell migration number (Mean ± SD)” value in assay [7] (30 μg/mL) was determined as 606.88 ± 58.90; in assay [7] (40 μg/mL), 494.52 ± 52.69; in [7] (50 μg/mL) it was 415.39 ± 44.92; in [7] (60 μg/mL), 578.69 ± 66.03. The “inhibition rate of HUVEC migration” value in assay [7] (30 μg/mL) is on record as 41.02%*; in assay [7] (40 μg/mL), 51.94%; in assay [7] (50 μg/mL), 59.63%; in assay [7] (60 μg/mL), 43.76%*. In addition, the Joint swelling in assay [8] is listed as 0.72 ± 0.17 mm. In addition, the “Left and right paw swelling” value in assay [8] came out at 3.92 ± 0.67 mm. For the same substance, the Clinical score in assay [8] (maximum score 16) came to 5.91 ± 1.09. The substance further yielded an Inhibition rate in assay [9] (corneal microvessel density vs control) of 45.09%. Also, the MVD in [9] (microvessel density (CD31) of cornea) is 36.64 ± 3.909*.
